Patent US11452721B2, “Formulations of pimavanserin” (ACADIA Pharmaceuticals Inc., priority 2017, dated 2022)

Columns and labels:
[1] = Bulk density according to USP <616> method 1; format: physicochemical
Protocol: (§1) Carr's Index compares the difference between the bulk density and tapped density of a substance to determine its compressibility. The bulk density and the Carr's Index may be determined in accordance with USP<616> (method for performing Bulk and Tapped Densities, method 1) and USP<1174> (definition of powder flow) respectively.
(§2) Table 1 visualizes that filling of a capsule, in particular a capsule of size 3 or 4 (capsule volumes of 0.30 and 0.21 ml respectively, approximately 120 mg and 85 mg respectively at a bulk density of […]). As evident from Table 1, native pimavanserin (API) would be challenging for a size 3 capsule and not possible for a capsule of size 4 without improving the bulk density (as comparison 85 mg of pimavanserin granulation would require about 0.17 ml compared to 0.29 ml for the native API) and flowability (Carr index is frequently used in pharmaceutical manufacturing as an indication of the flowability of a powder, e.g. 2016 U.S. Pharmacopoeias-National Formulary [USP 35 NF 30]).
The bulk density of the blended composition is >0.4 g/ml, such as 0.4-0.6 g/ml, such as about 0.5 g/ml determined according to USP <616>, method 1. […]
The bulk density of pimavanserin granulation is >0.4 g/ml, such as 0.4-0.6 g/ml, such as about 0.5 g/ml, determined according to USP <616>, method 1. […]

[2] = Carr's Index (Carr's Compressibility Index), USP <616>/<1174>; format: physicochemical
Protocol: as §1, §2

[3] = Laser light scattering particle size distribution (Malvern Mastersizer 2000); format: physicochemical; details: before vs after granulation, FIG. 4/5
Excerpt: The small quantity of water, its application using appropriate water atomization and/or water application rate are important reasons for the improved properties of pimavanserin. […] The actual amount of water to be sprayed at the granulation of pimavanserin may vary from batch to batch (depending on surrounding factors such as humidity, temperature, exact properties of the API batch, etc) but is still consider to be a small amount, e.g. 3-10% w/w based on the dry ingredients. The amount of water and the granulation process disclosed herein is controlled by controlling the impeller energy to achieve the targeted impeller speed. The appropriate impeller speed ensures sufficient mixing and controls the growth of granules. The specific small amount of water needed for each batch is controlled by the power consumption (amperage) of the granulator, i.e., if the amperage is […], additional amounts of water could be sprayed to the granulate in order to obtain pimavanserin having the properties desired in order to pharmaceutically manufacture capsules comprising 5-34 mg pimavanserin. […] The properties are achieved via a manufacturing process that includes granulation, using a suitable granulator, e.g. a high shear granulator, simultaneously spraying the adequate amount of water while mixing, followed by screening, and blending appropriate quantities of excipients. […]

[4] = FT4 Powder Rheology (FT4 Powder Rheometer, ASTM D7891-15); format: physicochemical; details: FT4 measurement
Excerpt: In addition to the bulk density and Carr's Index obtained according to USP <616>, method 1, FT4 Powder Rheology was obtained for the API (pimavanserin tartrate) and for the compositions disclosed herein using a FT4 Powder Rheometer according to ASTM D7891-15; Standard Test Method for Shear Testing of Powders Using the Freeman Technology FT4 Powder Rheometer Shear Cell.
As discussed herein above the flowability of the composition has been improved compared to the API (pimavanserin tartrate), which for example can be supported by the Specific Energy (SE) obtained from the FT4 measurements. Specific Energy is a measure of the powder's flowability when unconfined, such as during low stress filling, or low shear blending. The average Specific Energy (SE) for the API is about 10.08+/−0.23 mJ/g.
The FT4 Powder Rheometer was also used as yet another means to compare the bulk density between the API, the granulated pimavanserin and the blended pimavanserin compositions disclosed herein and in the accompanying claims. The bulk density is a conditioned bulk density as obtained by the FT4 measurement, in accordance with ASTM D7891-15; Standard Test Method for Shear Testing of Powders Using the Freeman Technology FT4 Powder Rheometer Shear Cell.
The blended pimavanserin composition used in the herein mention FT4 Powder Rheometry measurements comprised 34 mg pimavanserin, 59 mg microcrystalline cellulose and 1 mg magnesium stearate.

[5] = tested on: DOI ((±)-2,5-dimethoxy-4-iodoamphetamine, a serotonin agonist) induced head twitches; details: rat; oral doses of 3 and 10 mg/kg; cited from earlier work
[6] = tested on: hyperactivity induced by the N-methyl-D-aspartate antagonist MK-801; details: mice; oral doses of 3 and 10 mg/kg; cited from earlier work

Compound	volume required by 85 mg ([1]; 85 mg of material, from bulk density) [mL]	Bulk density according to USP <616> ([1]; USP <616> method 1) [g/mL]	Carr's Index [2]	particle size distribution D90 [3]	average Flow Rate Index (FRI) [4]	average Specific Energy (SE) [4]	average conditioned bulk density (CBD) ([4]; ASTM D7891-15) [g/mL]	activity in DOI induced head twitches [5]	attenuation of MK-801 induced hyperactivity [6]
pimavanserin tartrate [Native API]	0.29	0.294	36	about 30 μm	1.90±0.01	about 10.08+/−0.23 mJ/g	0.336 ± 0.006	–	–
CC(C)COc1ccc(CNC(=O)N(Cc2ccc(F)cc2)C2CCN(C)CC2)cc1 [Pimavanserin, N-(1-methylpiperidin-4-yl)-N-(4-fluorophenylmethyl)-N′-(4-(2-methylpropyloxy)phenylmethyl)carbamide]	–	–	–	–	–	–	–	effective	effective
